Source: US20210277020A1, “HETEROCYCLIC COMPOUNDS AS MONOACYLGLYCEROL LIPASE INHIBITORS” (Hoffmann-La Roche Inc., priority 2018, published 2021)

Molecular target: T1, MAGL (Homo sapiens, UniProt Q99685)
T1 sequence (Q99685 1-303): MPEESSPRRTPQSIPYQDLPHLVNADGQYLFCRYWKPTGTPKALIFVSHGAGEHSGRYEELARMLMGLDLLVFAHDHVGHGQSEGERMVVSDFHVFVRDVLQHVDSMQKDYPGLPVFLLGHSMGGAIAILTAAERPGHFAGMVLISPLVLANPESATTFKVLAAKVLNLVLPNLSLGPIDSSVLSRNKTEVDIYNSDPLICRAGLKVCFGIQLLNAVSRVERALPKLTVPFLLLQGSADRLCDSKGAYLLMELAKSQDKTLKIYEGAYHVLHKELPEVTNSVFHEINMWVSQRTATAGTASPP
Assay: 2-AG assay: MAGL inhibition followed by hydrolysis of 2-arachidonoylglycerol to arachidonic acid, mass spectrometry
Assay type: biochemical
Conditions: measured in 2-AG assay (footnote [a]); substrate 2-arachidonoylglycerol 8 μM, 30 min at RT
Text: Alternatively, compounds were profiled for MAGL inhibitory activity by determining the enzymatic activity by following the hydrolysis of the natural substrate, 2-arachidonoylglycerol, resulting in arachidonic acid, which can be followed by mass spectrometry. This assay is hereinafter abbreviated “2-AG assay”.
Detection by mass spectrometry in the present 2-AG assay has the advantage over known optical assays that the natural enzyme substrate, 2-arachidonoylglycerol, can be used instead of structurally unrelated compounds needed for optical readouts (such as 4-NPA). It thereby delivers more relevant data for activity determination, reduces false positives and generally adds to data quality. In addition, this assay reduces the analysis time from about 10 minutes per sample with standard methods to under 10 seconds per sample. This allows for using the present 2-AG assay in a method for high throughput screening of compounds for their MAGL inhibitory activity.
The 2-AG assay was carried out in 384 well assay plates (PP, Greiner Cat #784201) in a total volume of 20 μL. Compound dilutions were made in 100% DMSO (VWR Chemicals 23500.297) in a polypropylene plate in 3-fold dilution steps to give a final concentration range in the assay from 12.5 μM to […]. 0.25 μL compound dilutions (100% DMSO) were added to 9 μL MAGL in assay buffer (50 mM TRIS (GIBCO, 15567-027), 1 mM EDTA (Fluka, 03690-100 mL), 0.01% (v/v) Tween. After shaking, the plate was incubated for 15 min at RT. To start the reaction, 10 μL 2-arachidonoylglycerol in assay buffer was added. The final concentrations in the assay was […] and 8 μM 2-arachidonoylglyerol. After shaking and 30 min incubation at RT, the reaction was quenched by the addition of 40 μL of acetonitrile containing 4 μM of d8-arachidonic acid. The amount of arachidonic acid was traced by an online SPE system (Agilent Rapidfire) coupled to a triple quadrupole mass spectrometer (Agilent 6460). A C18 SPE cartridge (G9205A) was used in an acetonitrile/water liquid setup. The mass spectrometer was operated in negative electrospray mode following the mass transitions 303.1→259.1 for arachidonic acid and 311.1→267.0 for d8-arachidonic acid. The activity of the compounds was calculated based on the ratio of intensities [arachidonic acid/d8-arachidonic acid].
In a preferred embodiment, the method for determining the MAGL inhibitory activity of a test compound according to the invention, comprises: • (i) providing a solution of a test compound; • (ii) adding the solution of step (i) to a solution of MAGL; • (iii) shaking the mixture obtained from step (ii); • (iv) incubating the mixture obtained from step (iii); • (v) adding a solution of 2-arachidonoylglycerol; • (vi) incubating the mixture obtained from step (v); • (vii) adding a solution of d8-arachidonic acid; and • (viii) determining the ratio of intensities arachidonic acid/d8-arachidonic acid using a mass spectrometer.

| SMILES | IC50 |
| --- | --- |
| CN(C(=O)Cc1cccc(C(F)(F)F)c1Cl)C1CCN(C(=O)N2CC[C@@H]3OCC(=O)N[C@@H]3C2)CC1 [Example 83, N-[1-[(4aR,8aS)-3-oxo-4,4a,5,7,8,8a-hexahydropyrido[4,3-b][1,4]oxazine-6-carbonyl]piperidin-4-yl]-2-[2-chloro-3-(trifluoromethyl)phenyl]-N-methylacetamide] | 608 nM |
| O=C1CO[C@H]2CCN(C(=O)N3CC(CNC(c4ccccc4Cl)C(F)(F)F)C3)C[C@H]2N1 (stereo partly drawn) [Example 70, (4aR,8aS)-6-(3-(((1-(2-Chlorophenyl)-2,2,2-trifluoroethyl)amino)methyl)azetidine-1-carbonyl)hexahydro-2H-pyrido[4,3-b][1,4]oxazin-3(4H)-one] | 12 nM |
| O=C1CO[C@H]2CCN(C(=O)N3CCC(O)(C#Cc4ccccc4Cl)CC3)C[C@H]2N1 [Example 132, (+)-(4aR,8aS)-6-[4-[2-(2-Chlorophenyl)ethynyl]-4-hydroxypiperidine-1-carbonyl]-4,4a,5,7,8,8a-hexahydropyrido[4,3-b][1,4]oxazin-3-one] | 889 nM |
| O=C1CO[C@H]2CCN(C(=O)N3CC(C#Cc4c(Cl)cccc4Cl)C3)C[C@H]2N1 [Example 157, (+)-(4aR,8aS)-6-(3-((2,6-Dichlorophenyl)ethynyl)azetidine-1-carbonyl)hexahydro-2H-pyrido[4,3-b][1,4]oxazin-3(4H)-one] | 5 nM |
| O=C1CO[C@H]2CCN(C(=O)N3CC(C#Cc4ccccc4Cl)C3)C[C@H]2N1 [Example 133] | 9 nM |
| O=C1CO[C@H]2CCN(C(=O)N3CC(CSc4ccc(C(F)(F)F)cc4Cl)C3)C[C@H]2N1 [Example 148, (4aR,8aS)-6-[3-[[2-Chloro-4-(trifluoromethyl)phenyl]sulfanylmethyl]azetidine-1-carbonyl]-4,4a,5,7,8,8a-hexahydropyrido[4,3-b][1,4]oxazin-3-one] | 2 nM |
| O=C1CO[C@H]2CCN(C(=O)N3CC(NC(=O)c4ccc(F)cc4Cl)C3)C[C@H]2N1 [Example 78, 2-chloro-4-fluoro-N-(1-((4aR,8aS)-3-oxooctahydro-2H-pyrido[4,3-b][1,4]oxazine-6-carbonyl)azetidin-3-yl)benzamide] | 4600 nM |
| O=C1CO[C@H]2CCN(C(=O)N3CCC(C#Cc4ccc(Cl)cc4Cl)CC3)C[C@H]2N1 [Example 131, (+)-(4aR,8aS)-6-[4-[2-(2,4-Dichlorophenyl)ethynyl]piperidine-1carbonyl]-4,4a,5,7,8,8a-hexahydropyrido[4,3-b][1,4]oxazin-3-one] | 22 nM |
| O=C1CO[C@H]2CCN(C(=O)N3CC([S+]([O-])c4ccc(C(F)(F)F)cc4Cl)C3)C[C@H]2N1 (single isomer, unassigned) [Example 146] | 2720 nM |
| O=C1CO[C@H]2CCN(C(=O)N3CCC(C#Cc4ccccc4Cl)CC3)C[C@H]2N1 [Example 125, (+)-(4aR,8aS)-6-[4-[2-(2-Chlorophenyl)ethynyl]piperidine-1-carbonyl]-4,4a,5,7,8,8a-hexahydropyrido[4,3-b][1,4]oxazin-3-one] | 30 nM |
| O=C1CO[C@H]2CCN(C(=O)N3CC(C#Cc4ccc(C(F)(F)F)cc4F)C3)C[C@H]2N1 [Example 158, (4aR,8aS)-6-[3-[2-[2-Fluoro-4-(trifluoromethyl)phenyl]ethynyl]azetidine-1-carbonyl]-4,4a,5,7,8,8a-hexahydropyrido[4,3-b][1,4]oxazin-3-one] | 5 nM |

More lines, now with the values ahead:

| IC50 | SMILES |
| --- | --- |
| 11 nM | COc1cccc(C#CC2CN(C(=O)N3CC[C@@H]4OCC(=O)N[C@@H]4C3)C2)c1C [Example 183, (4aR,8aS)-6-[3-[2-(3-Methoxy-2-methylphenyl)ethynyl]azetidine-1-carbonyl]-4,4a,5,7,8,8a-hexahydropyrido[4,3-b][1,4]oxazin-3-one] |
| 7 nM | O=C1CO[C@H]2CCN(C(=O)N3CC(C#Cc4ccccc4Br)C3)C[C@H]2N1 [Example 171, (4aR,8aS)-6-[3-[2-(2-Bromophenyl)ethynyl]azetidine-1-carbonyl]-4,4a,5,7,8,8a-hexahydropyrido[4,3-b][1,4]oxazin-3-one] |
| 38 nM | O=C1CO[C@H]2CCN(C(=O)N3CC(C#Cc4ccc(C5(O)CC5)cc4)C3)C[C@H]2N1 [Example 180, (4aR,8aS)-6-[3-[2-[4-(1-Hydroxycyclopropyl)phenyl]ethynyl]azetidine-1-carbonyl]-4,4a,5,7,8,8a-hexahydropyrido[4,3-b][1,4]oxazin-3-one] |
| 22 nM | O=C1CO[C@H]2CCN(C(=O)N3CC(C#Cc4ccc(OC(F)F)cc4)C3)C[C@H]2N1 [Example 177, (4aR,8aS)-6-[3-[2-[4-(Difluoromethoxy)phenyl]ethynyl]azetidine-1-carbonyl]-4,4a,5,7,8,8a-hexahydropyrido[4,3-b][1,4]oxazin-3-one] |
| 92 nM | CC1(C#Cc2ccc(Cl)cc2Cl)CCN(C(=O)N2CC[C@@H]3OCC(=O)N[C@@H]3C2)CC1 [Example 196, (4aR,8aS)-6-(4-((2,4-Dichlorophenyl)ethynyl)-4-methylpiperidine-1-carbonyl)hexahydro-2H-pyrido[4,3-b][1,4]oxazin-3(4H)-one] |
| 50 nM | N#Cc1cccc(Cl)c1C#CC1CN(C(=O)N2CC[C@@H]3OCC(=O)N[C@@H]3C2)C1 [Example 176, 2-[2-[1-[(4aR,8aS)-3-oxo-4,4a,5,7,8,8a-Hexahydropyrido[4,3-b][1,4]oxazine-6-carbonyl]azetidin-3-yl]ethynyl]-3-chlorobenzonitrile] |
| 5 nM | O=C1CO[C@H]2CCN(C(=O)N3CC(C#Cc4c(F)cccc4Cl)C3)C[C@H]2N1 [Example 161, (4aR,8aS)-6-(3-((2-Chloro-6-fluorophenyl)ethynyl)azetidine-1-carbonyl)hexahydro-2H-pyrido[4,3-b][1,4]oxazin-3(4H)-one] |
| 507 nM | O=C1CO[C@H]2CCN(C(=O)N3CC(C#CC4(O)CCCC4)C3)C[C@H]2N1 [Example 198, (4aR,8aS)-6-[3-[2-(1-Hydroxycyclopentyl)ethynyl]azetidine-1-carbonyl]-4,4a,5,7,8,8a-hexahydropyrido[4,3-b][1,4]oxazin-3-one] |
| 18 nM | O=C1CO[C@H]2CCN(C(=O)N3CCC(C#Cc4ccccc4C(F)(F)F)CC3)C[C@H]2N1 [Example 192, (4aR,8aS)-6-(4-((2-(Trifluoromethyl)phenyl)ethynyl)piperidine-1-carbonyl)hexahydro-2H-pyrido[4,3-b][1,4]oxazin-3(4H)-one] |
| 25 nM | Cc1cccc(C)c1C#CC1CCN(C(=O)N2CC[C@@H]3OCC(=O)N[C@@H]3C2)CC1 [Example 195, (4aR,8aS)-6-(4-((2,6-Dimethylphenyl)ethynyl)piperidine-1-carbonyl)hexahydro-2H-pyrido[4,3-b][1,4]oxazin-3(4H)-one] |
| 31 nM | Cc1ccccc1C#CC1CCN(C(=O)N2CC[C@@H]3OCC(=O)N[C@@H]3C2)CC1 [Example 194, (4aR,8aS)-6-(4-(o-Tolylethynyl)piperidine-1-carbonyl)hexahydro-2H-pyrido[4,3-b][1,4]oxazin-3(4H)-one] |
| 753 nM | CS(=O)(=O)c1ccc(C#CC2CN(C(=O)N3CC[C@@H]4OCC(=O)N[C@@H]4C3)C2)cc1 [Example 186, (4aR,8aS)-6-[3-[2-(4-Methylsulfonylphenyl)ethynyl]azetidine-1-carbonyl]-4,4a,5,7,8,8a-hexahydropyrido[4,3-b][1,4]oxazin-3-one] |
| 8 nM | O=C1CO[C@H]2CCN(C(=O)N3CC(C#Cc4cccc(Cl)c4)C3)C[C@H]2N1 [Example 165, (4aR,8aS)-6-[3-[2-(3-Chlorophenyl)ethynyl]azetidine-1-carbonyl]-4,4a,5,7,8,8a-hexahydropyrido[4,3-b][1,4]oxazin-3-one] |
